Earlier results, collected in paper PMC2978073 (Journal of medicinal chemistry, 2010).

Legend:
[1] = tested on: rabbit model for cerebral palsy
[2] = compared with 3

Compound | effect on eNOS-regulated blood pressure [1] | hypoxia-ischemia induced death [1] | number of newborn kits exhibiting cerebral palsy phenotype [1] | bioavailability [2]
Cc1cc(N)nc(C[C@H]2CNC[C@H]2NCCNCc2ccc(Cl)cc2)c1 (racemic) [(±)-2] | without affecting eNOS-regulated blood pressure | prevent hypoxia-ischemia induced death | reduce the number of newborn kits exhibiting cerebral palsy phenotype | 
Cc1cc(N)nc(C[C@H]2CNC[C@H]2OCCNCCc2cccc(F)c2)c1 (racemic) [(±)-4] |  |  |  | improved bioavailability
Cc1cc(N)nc(C[C@H]2CNC[C@H]2NCCNCCc2cccc(F)c2)c1 (racemic) [(±)-3] | without affecting eNOS-regulated blood pressure | prevent hypoxia-ischemia induced death | reduce the number of newborn kits exhibiting cerebral palsy phenotype | 
